The text below walks through data of ChEMBL document CHEMBL1151877, “Examination of halogen substituent effects on HIV-1 integrase inhibitors derived from 2,3-dihydro-6,7-dihydroxy-1H-isoindol-1-ones and 4,5-dihydroxy-1H-isoindole-1,3(2H)-diones” (Bioorg Med Chem Lett, 2009).

pEC50, pIC50: −log10 of the molar value.

Assay [1] concerns the target T1, Human immunodeficiency virus type 1 integrase (Human immunodeficiency virus 1, UniProt Q7ZJM1). Description: Inhibition of HIV1 integrase 3'-processing activity in presence of magnesium.
In assay [2] the target is T1, Human immunodeficiency virus type 1 integrase. Description: Inhibition of HIV1 integrase strand transfer activity in presence of magnesium.
The subject of assay [3] is Human immunodeficiency virus 1. Description: Antiviral activity against VSV-g-pseudotyped HIV1 assessed as inhibition of viral infection in human HOS cells pretreated for 3 hrs before viral infection by luciferase reporter gene assay. It counts as functional, organism-based. The conditions noted are these: Human immunodeficiency virus 1, HOS. On the technique in general: Reporter assays use an easily measured gene product as a stand-in for the process of interest.

The subject of the next assay is HOS. Description: Cytotoxicity against human HOS cells. In kind it is cell-based.
Assay [4] has as its target Human immunodeficiency virus type 1 integrase (Human immunodeficiency virus 1) (UniProt Q7ZJM1). Description: Selectivity ratio of IC50 for HIV1 integrase strand transfer activity to IC50 for HIV1 integrase 3'-processing activity.

T1 sequence (Q7ZJM1 whole entry): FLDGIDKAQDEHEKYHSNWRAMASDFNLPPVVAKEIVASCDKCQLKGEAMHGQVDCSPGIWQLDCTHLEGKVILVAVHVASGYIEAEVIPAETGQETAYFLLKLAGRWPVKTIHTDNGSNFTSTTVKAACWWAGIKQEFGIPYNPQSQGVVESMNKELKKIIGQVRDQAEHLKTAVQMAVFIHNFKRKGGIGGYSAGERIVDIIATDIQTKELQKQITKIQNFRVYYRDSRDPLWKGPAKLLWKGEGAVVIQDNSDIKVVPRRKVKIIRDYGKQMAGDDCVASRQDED
Chain of Human immunodeficiency virus type 1 integrase (Human immunodeficiency virus 1) (Q7ZJM1 as listed by the source): as the sequence (Q7ZJM1 whole entry) above

On to `Cc1cc(CN2C(=O)c3ccc(O)c(O)c3C2=O)ccc1F`, for which the negative-log IC50 (pIC50) was 4.96 in assay [1] and 6.10 in assay [2].
In the case of `O=C1c2c(ccc(O)c2O)CN1Cc1ccc(F)c(Cl)c1`, in assay [3], the pEC50 was 6.32. Also, the negative logarithm of the IC50 (pIC50) in the assay with HOS is 5.16.
On to `Cc1cc(CN2Cc3ccc(O)c(O)c3C2=O)ccc1F`, for which the pIC50 is 4.77 in assay [1] and 6.05 in assay [2].
As to `O=C1c2c(ccc(O)c2O)CN1Cc1cccc(F)c1F`, the pIC50 in assay [1] is 4.14; in assay [2] it was 6.15.
Consider `O=C1c2ccc(O)c(O)c2C(=O)N1Cc1cc(F)c(F)cc1F`, for which the pIC50 was 4.27 in assay [1] and 6.30 in assay [2].
With `O=C1c2ccc(O)c(O)c2C(=O)N1Cc1ccc(Cl)c(Cl)c1`, the pEC50 in assay [3] is 5.63. Moreover, the pIC50 in assay [1] was 4.74; in assay [2], 6.92; in the assay on HOS it was 5.35.
For `O=C1c2c(ccc(O)c2O)CN1Cc1ccc(F)cc1Cl`, the figures for the pIC50 in assay [1] and in assay [2] were < 3.48 and 5.60, respectively. Moreover, the Ratio IC50 in assay [4] worked out at 700.
Regarding `O=C1c2ccc(O)c(O)c2C(=O)N1Cc1ccc(F)c(F)c1F`, the pIC50 is 4.74 in assay [1] and 6.10 in assay [2].
On to `O=C1c2c(ccc(O)c2O)CN1Cc1ccc(Cl)c(Cl)c1`, for which the pEC50 in assay [3] was 5.48. Further, the pIC50 in assay [1] was 4.05; in assay [2], 7.00; in the assay with HOS it was 5.25.
Take `O=C1c2ccc(O)c(O)c2C(=O)N1Cc1ccc(F)c(Br)c1`: the pIC50 in assay [1] was 4.96; in assay [2] it was 6.05.
As for `O=C1c2c(ccc(O)c2O)CN1Cc1cc(F)ccc1F`, the pEC50 in assay [3] was 5.91. For the same compound, the pIC50 was < 3.48 in assay [1], 4.57 in assay [2] and 4.87 in the assay with HOS.
In the same order, the values of `O=C1c2c(ccc(O)c2O)CN1Cc1cc(F)cc(F)c1` are 5.62, 3.63, 6.52 and 4.77.
For the compound `O=C1c2ccc(O)c(O)c2C(=O)N1Cc1c(F)cccc1F`, the pIC50 in assay [1] was 3.99; in assay [2] it was 5.70.
On to `O=C1c2ccc(O)c(O)c2C(=O)N1Cc1ccccc1F`, for which the pIC50 in assay [1] was 4.17; in assay [2], 5.70.
`O=C1c2ccc(O)c(O)c2C(=O)N1Cc1ccc(F)c(Cl)c1`: in assay [3], the pEC50 was 5.55. Moreover, the pIC50 was 4.85 in assay [1], 6.77 in assay [2] and 5.02 with HOS.
Consider `O=C1c2c(ccc(O)c2O)CN1Cc1c(F)cccc1F`, for which the pIC50 is 4.15 in assay [1] and 4.70 in assay [2].
Regarding `O=C1c2c(ccc(O)c2O)CN1Cc1c(F)c(F)c(F)c(F)c1F`, the results for the pIC50 in assay [1] and in assay [2] were 3.64 and 5.10, respectively.
Take `O=C1c2c(ccc(O)c2O)CN1Cc1ccccc1F`: the results for the pIC50 in assay [1] and in assay [2] were < 3.48 and 4.60, respectively.
For `O=C1c2ccc(O)c(O)c2C(=O)N1Cc1cc(F)cc(F)c1`, the figures for the pIC50 in assay [1] and in assay [2] were 4.32 and 6.40, respectively.
`O=C1c2ccc(O)c(O)c2C(=O)N1Cc1c(F)ccc(F)c1Cl`: the negative logarithm of the IC50 (pIC50) in assay [1] is 4.47; in assay [2], 5.40.
Regarding `O=C1c2ccc(O)c(O)c2C(=O)N1Cc1ccc(F)cc1Cl`, the negative-log IC50 (pIC50) in assay [1] is 4.05; in assay [2], 5.89.
`O=C1c2ccc(O)c(O)c2C(=O)N1Cc1cc(Cl)ccc1F`: the pIC50 is 5.05 in assay [1] and 6.51 in assay [2].
`O=C1c2ccc(O)c(O)c2C(=O)N1Cc1cccc(Br)c1`: the pEC50 in assay [3] is 5.42. In addition, the figures for the pIC50 (in assay [1]; in assay [2]; with HOS) were 4.80, 6.40 and 4.94, respectively.
On to `O=C1c2c(ccc(O)c2O)CN1Cc1ccc(F)c(F)c1F`, for which the pIC50 in assay [1] is 3.82; in assay [2], 5.57.
For the compound `O=C1c2c(ccc(O)c2O)CN1Cc1cc(Cl)ccc1F`, the pIC50 in assay [1] was 4.74; in assay [2], 5.92.
As to `O=C1c2c(ccc(O)c2O)CN1Cc1ccc(F)c(F)c1`, the pEC50 in assay [3] was 5.97. Besides, the pIC50 in assay [1] is 4.14; in assay [2] it was 6.05; in the assay with HOS, 5.05.
`O=C1c2c(ccc(O)c2O)CN1Cc1cc(F)c(F)c(F)c1`: the results for the negative-log IC50 (pIC50) in assay [1] and in assay [2] were 4.00 and 5.40, respectively.
`O=C1c2c(ccc(O)c2O)CN1Cc1cc(Cl)c(F)cc1F`: the pEC50 in assay [3] was 6.19. For the same compound, the results for the pIC50 (in assay [1]; in assay [2]; in the assay on HOS) were < 3.48, 5.36 and 5.08, respectively.
`O=C1c2ccc(O)c(O)c2C(=O)N1Cc1cc(F)ccc1F`: the pIC50 in assay [1] is 4.22; in assay [2], 6.64.
With `O=C1c2c(ccc(O)c2O)CN1Cc1ccc(F)cc1F`, the results for the pIC50 in assay [1] and in assay [2] were 4.43 and 6.30, respectively.
As for `O=C1c2ccc(O)c(O)c2C(=O)N1Cc1ccc(Cl)c(F)c1`, the pIC50 was 4.24 in assay [1] and 6.05 in assay [2].
For the compound `O=C1c2ccc(O)c(O)c2C(=O)N1Cc1cccc(Cl)c1F`, the pEC50 in assay [3] was 5.56. Besides, the pIC50 in assay [1] is 4.60; in assay [2] it was 5.70; in the assay with HOS, 4.94.
With `O=C1c2ccc(O)c(O)c2C(=O)N1Cc1cc(F)c(F)c(F)c1`, the pIC50 in assay [1] is 5.00; in assay [2], 6.22.
On to `O=C1c2c(ccc(O)c2O)CN1Cc1cccc(F)c1`, for which the negative-log EC50 (pEC50) in assay [3] is 5.97. Besides, the negative logarithm of the IC50 (pIC50) in assay [1] was 3.62; in assay [2], 4.68; with HOS it was 5.07.
Turning to `O=C1c2c(ccc(O)c2O)CN1Cc1cccc(I)c1`, the pEC50 in assay [3] is 5.97. The pIC50 was 3.77 in assay [1], 5.40 in assay [2] and 5.16 in the assay on HOS.
With `O=C1c2c(ccc(O)c2O)CN1Cc1ccc(Cl)c(F)c1`, the pIC50 in assay [1] was 4.01; in assay [2], 5.22.
On to `O=C1c2ccc(O)c(O)c2C(=O)N1Cc1cccc(Cl)c1`, for which, in assay [3], the pEC50 was 5.38. The negative logarithm of the IC50 (pIC50) in assay [1] was 4.85; in assay [2] it was 6.40; in the assay on HOS it was 4.88.
For `O=C1c2ccc(O)c(O)c2C(=O)N1Cc1ccc(F)cc1F`, the values for the pIC50 in assay [1] and in assay [2] were 4.80 and 6.52, respectively.
Regarding `O=C1c2ccc(O)c(O)c2C(=O)N1Cc1cccc(I)c1`, the pEC50 in assay [3] was 5.11. Further, the pIC50 in assay [1] is 4.07; in assay [2], 6.00; with HOS it was 4.92.
`O=C1c2ccc(O)c(O)c2C(=O)N1Cc1ccccc1`: the negative-log EC50 (pEC50) in assay [3] was 4.95. For the same compound, the pIC50 was 4.14 in assay [1] and 6.40 in assay [2].
Take `O=C1c2ccc(O)c(O)c2C(=O)N1Cc1ccc(F)c(F)c1`: in assay [3], the pEC50 is 5.23. Besides, the figures for the pIC50 (in assay [1]; in assay [2]; in the assay with HOS) were 4.57, 7.00 and 5.10, respectively.
As to `O=C1c2c(ccc(O)c2O)CN1Cc1c(F)ccc(F)c1F`, the negative logarithm of the IC50 (pIC50) is < 3.48 in assay [1] and 4.60 in assay [2].
As for `O=C1c2ccc(O)c(O)c2C(=O)N1Cc1c(F)ccc(F)c1F`, the pIC50 was 3.80 in assay [1] and 5.74 in assay [2].
For the compound `O=C1c2c(ccc(O)c2O)CN1Cc1cccc(Cl)c1F`, the pEC50 in assay [3] was 6.21. The values for the pIC50 (in assay [1]; in assay [2]; with HOS) were 4.44, 5.70 and 5.03, respectively.
As to `O=C1c2ccc(O)c(O)c2C(=O)N1Cc1c(F)c(F)c(F)c(F)c1F`, the pIC50 is 4.39 in assay [1] and 5.89 in assay [2].
For `O=C1c2ccc(O)c(O)c2C(=O)N1Cc1cccc(F)c1` the same measures were 4.96 and 6.52.
As for `O=C1c2ccc(O)c(O)c2C(=O)N1Cc1c(F)cccc1Cl`, the pIC50 was 4.27 in assay [1] and 5.46 in assay [2].
In the case of `O=C1c2ccc(O)c(O)c2C(=O)N1Cc1cc(Cl)c(F)cc1F`, the pEC50 in assay [3] was 5.35. Also, the negative logarithm of the IC50 (pIC50) in assay [1] is 4.10; in assay [2] it was 6.40; in the assay with HOS, 4.86.
Consider `O=C1c2c(ccc(O)c2O)CN1Cc1c(F)cccc1Cl`, for which the pIC50 was < 3.48 in assay [1] and 4.74 in assay [2].
Turning to `O=C1c2c(ccc(O)c2O)CN1Cc1c(F)ccc(F)c1Cl`, the pIC50 in assay [1] is < 3.48; in assay [2] it was 5.05.
Consider `O=C1c2c(ccc(O)c2O)CN1Cc1ccc(F)c(Br)c1`, for which the pIC50 was 4.47 in assay [1] and 6.00 in assay [2].
For the compound `O=C1c2c(ccc(O)c2O)CN1Cc1cccc(Cl)c1`, in assay [3], the negative logarithm of the EC50 (pEC50) was 6.27. In addition, the values for the pIC50 (in assay [1]; in assay [2]; in the assay with HOS) were 4.14, 5.40 and 5.04, respectively.
Take `O=C1c2c(ccc(O)c2O)CN1Cc1cccc(Br)c1`: in assay [3], the pEC50 is 6.23. The pIC50 in assay [1] is 3.58; in assay [2], 5.52; in the assay with HOS, 5.14.
For the compound `O=C1c2c(ccc(O)c2O)CN1Cc1cc(F)c(F)cc1F`, the pIC50 in assay [1] was < 3.48; in assay [2], 5.43.
As to `O=C1c2ccc(O)c(O)c2C(=O)N1Cc1ccc(F)cc1`, the pEC50 in assay [3] was 6.07. For the same compound, the figures for the pIC50 in assay [1] and in assay [2] were 5.10 and 5.30, respectively.

The pIC50 is the negative decadic logarithm of the IC50, by convention in mol/L. The term pEC50 denotes the negative decadic logarithm of the EC50, by convention in mol/L.
